Source: ChEMBL document CHEMBL1201862, “PubChem BioAssay data set” (2004)
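Following 48 hours of exposure in 96-well plates, responses at five concentrations were used to interpolate endpoints linearly. At the GI50, growth is halved.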 Activity calls are given as the source filed them. No stated cut-off is given here; in the data, active = GI50 up to about 1.1 µM and inactive = higher.

What was measured:
Test in all cases: NCI anticancer screen, dose series, 48 h
SW-620 = test system: SW-620
K562 = test system: K562
COLO 205 = test system: COLO 205
MOLT-4 = test system: MOLT-4
SNB-75 = test system: SNB-75
M14 = test system: M14
HCT-116 = test system: HCT-116
MCF7 = test system: MCF7
UO-31 = test system: UO-31
NCI/ADR-RES = test system: NCI/ADR-RES
HOP-92 = test system: HOP-92
U-251 = test system: U-251
OVCAR-8 = test system: OVCAR-8
HCT-15 = test system: HCT-15
SK-MEL-5 = test system: SK-MEL-5
SF-295 = test system: SF-295
SF-268 = test system: SF-268
A549 = test system: A549
PC-3 = test system: PC-3
HL-60 = test system: HL-60

Row | SMILES | GI50 (SW-620) | GI50 (K562) | GI50 (COLO 205) | GI50 (MOLT-4) | GI50 (SNB-75) | GI50 (M14) | GI50 (HCT-116) | GI50 (MCF7) | GI50 (UO-31) | GI50 (NCI/ADR-RES) | GI50 (HOP-92) | GI50 (U-251) | GI50 (OVCAR-8) | GI50 (HCT-15) | GI50 (SK-MEL-5) | GI50 (SF-295) | GI50 (SF-268) | GI50 (A549) | GI50 (PC-3) | GI50 (HL-60)
1 | COCN1C(=O)[C@@H]2CCCN2C(=O)c2cc(Cl)ccc21 | > 100 µM (inactive) | > 100 µM (inactive) | > 100 µM (inactive) | > 100 µM (inactive) | > 100 µM (inactive) | > 100 µM (inactive) | > 100 µM (inactive) | > 100 µM (inactive) | > 100 µM (inactive) | > 100 µM (inactive) | > 100 µM (inactive) | > 100 µM (inactive) | > 100 µM (inactive) | > 100 µM | > 100 µM (inactive) | > 100 µM (inactive) | > 100 µM (inactive) | > 100 µM (inactive) | > 100 µM (inactive) | –
2 | CCCCN1C(=O)CC2[C@@H]3CCc4cc(OC)ccc4C3CC[C@]2(C)C1=O (some centres not stated) | > 10 µM (inactive) | 7.93 µM (inactive) | > 10 µM (inactive) | > 10 µM (inactive) | 3.1 µM (inactive) | > 10 µM (inactive) | > 10 µM (inactive) | > 10 µM (inactive) | > 10 µM (inactive) | > 10 µM (inactive) | – | > 10 µM (inactive) | > 10 µM (inactive) | > 10 µM | > 10 µM (inactive) | > 10 µM (inactive) | > 10 µM (inactive) | > 10 µM (inactive) | > 10 µM (inactive) | 5.04 µM (inactive)
3 | C/C(=N\c1cccc(Cl)c1)c1ccncc1 | > 100 µM (inactive) | > 100 µM (inactive) | > 100 µM (inactive) | > 100 µM (inactive) | > 100 µM (inactive) | > 100 µM (inactive) | > 100 µM (inactive) | > 100 µM (inactive) | > 100 µM (inactive) | > 100 µM (inactive) | > 100 µM (inactive) | > 100 µM (inactive) | > 100 µM (inactive) | > 100 µM | > 100 µM (inactive) | > 100 µM (inactive) | 14.6 µM (inactive) | > 100 µM (inactive) | > 100 µM (inactive) | –
4 | COc1ccc(CN(CCc2c[nH]c3ccccc23)Cc2ccc(OC)cc2)cc1 | 4.19 µM (inactive) | 4.75 µM (inactive) | 2.04 µM (inactive) | > 21 µM (inactive) | 6.25 µM (inactive) | 2.8 µM (inactive) | 0.83 µM (active) | 3.47 µM (inactive) | 1.47 µM (inactive) | 3.2 µM (inactive) | 3.29 µM (inactive) | 5.81 µM (inactive) | 3.95 µM (inactive) | 3.44 µM | 2.77 µM (inactive) | 1.15 µM (inactive) | 4.39 µM (inactive) | 3.63 µM (inactive) | 3.66 µM (inactive) | –
5 | Cc1ccc(S(=O)(=O)N2CCC(=O)c3cc(Br)ccc32)cc1 | 6.04 µM (inactive) | 4.57 µM (inactive) | 16.9 µM (inactive) | 4.51 µM (inactive) | 14.6 µM (inactive) | 5.06 µM (inactive) | 4.72 µM (inactive) | 4.45 µM (inactive) | 10.9 µM (inactive) | 6.56 µM (inactive) | 18.6 µM (inactive) | 3.72 µM (inactive) | 14.4 µM (inactive) | 4.88 µM | 7.05 µM (inactive) | 10.1 µM (inactive) | 18.2 µM (inactive) | 13.6 µM (inactive) | 6.01 µM (inactive) | –
6 | CN(C)CCNC(=O)c1cccc(NC(=O)c2ccccc2)c1[N+](=O)[O-] | > 100 µM (inactive) | – | 8.65 µM (inactive) | > 100 µM (inactive) | 36 µM (inactive) | > 100 µM (inactive) | > 100 µM (inactive) | > 100 µM (inactive) | > 100 µM (inactive) | > 100 µM (inactive) | – | > 100 µM (inactive) | > 100 µM (inactive) | > 100 µM | 77.1 µM (inactive) | > 100 µM (inactive) | > 100 µM (inactive) | > 100 µM (inactive) | > 100 µM (inactive) | > 100 µM (inactive)
7 | Cc1cc(C)c(S(=O)(=O)N2CCN(S(=O)(=O)c3c(C)cc(C)cc3C)OCCCCCO2)c(C)c1 | > 100 µM (inactive) | > 100 µM (inactive) | > 100 µM (inactive) | > 100 µM (inactive) | – | > 100 µM (inactive) | > 100 µM (inactive) | > 100 µM (inactive) | > 100 µM (inactive) | > 100 µM (inactive) | 62.1 µM (inactive) | > 100 µM (inactive) | > 100 µM (inactive) | > 100 µM | > 100 µM (inactive) | > 100 µM (inactive) | > 100 µM (inactive) | > 100 µM (inactive) | 6.22 µM (inactive) | > 100 µM (inactive)
8 | Cc1ccc(C(CC(=O)C(C)(C)CN2CCCCC2)SCCS(=O)(=O)O)cc1 (configuration not stated) | 25.8 µM (inactive) | 11.6 µM (inactive) | 18.8 µM (inactive) | 20.8 µM (inactive) | 31.3 µM (inactive) | 23.8 µM (inactive) | 22.3 µM (inactive) | 21.6 µM (inactive) | 25.2 µM (inactive) | 28.8 µM (inactive) | 17.1 µM (inactive) | 29.4 µM (inactive) | 21.9 µM (inactive) | 22.6 µM | 23.2 µM (inactive) | 15 µM (inactive) | 37.8 µM (inactive) | 36.1 µM (inactive) | 34.4 µM (inactive) | –
9 | O=C1/C(=C/C=C/c2ccccc2)N=C(c2ccccc2)N1C1Nc2cc3c(cc2S1)NC(N1C(=O)/C(=C/C=C/c2ccccc2)N=C1c1ccccc1)S3 (configuration not stated) | 22.4 µM (inactive) | 0.311 µM (active) | – | 0.0117 µM (active) | – | 26.4 µM (inactive) | 28.1 µM (inactive) | 29.9 µM (inactive) | 28.1 µM (inactive) | 67.9 µM (inactive) | 22.2 µM (inactive) | 42.4 µM (inactive) | 44.4 µM (inactive) | 40.9 µM | 55 µM (inactive) | 67.6 µM (inactive) | 9.68 µM (inactive) | – | 65.2 µM (inactive) | 29.1 µM (inactive)
10 | S=C(S)NCCCn1ccnc1 | > 100 µM (inactive) | > 100 µM (inactive) | > 100 µM (inactive) | > 100 µM (inactive) | – | > 100 µM (inactive) | > 100 µM (inactive) | > 100 µM (inactive) | > 100 µM (inactive) | > 100 µM (inactive) | > 100 µM (inactive) | > 100 µM (inactive) | > 100 µM (inactive) | > 100 µM | > 100 µM (inactive) | > 100 µM (inactive) | > 100 µM (inactive) | > 100 µM (inactive) | > 100 µM (inactive) | > 100 µM (inactive)
11 | Cc1ccc(C2=Nc3ccccc3SC(c3cccc([N+](=O)[O-])c3)C2)cc1 (configuration not stated) | 3.18 µM (inactive) | 6.56 µM (inactive) | 58.7 µM (inactive) | – | 11.4 µM (inactive) | 23.9 µM (inactive) | 3.6 µM (inactive) | 4.08 µM (inactive) | 5.4 µM (inactive) | 59.6 µM (inactive) | 10.4 µM (inactive) | 4.59 µM (inactive) | 10.2 µM (inactive) | 48.1 µM | 15.4 µM (inactive) | 28.4 µM (inactive) | 16.2 µM (inactive) | 26.2 µM (inactive) | 10.2 µM (inactive) | –
12 | O=C1Nc2ccc(S(=O)(=O)N(CCO)CCO)cc2/C1=C1/Nc2ccccc2C1=O | > 100 µM (inactive) | > 100 µM (inactive) | 8.05 µM (inactive) | 62.4 µM (inactive) | 2.82 µM (inactive) | > 100 µM (inactive) | 51.6 µM (inactive) | 0.615 µM (active) | > 100 µM (inactive) | > 100 µM (inactive) | > 100 µM (inactive) | 96.6 µM (inactive) | > 100 µM (inactive) | > 100 µM | > 100 µM (inactive) | > 100 µM (inactive) | > 100 µM (inactive) | > 100 µM (inactive) | 30.3 µM (inactive) | –
13 | O=C(c1ccccc1)c1ccc2c(c1)nc1n2C(c2c(F)cccc2F)SC1 (configuration not stated) | 37.2 µM (inactive) | – | 24.1 µM (inactive) | – | 18.9 µM (inactive) | 20.8 µM (inactive) | 15 µM (inactive) | 26.5 µM (inactive) | 11.6 µM (inactive) | 29.9 µM (inactive) | 40.5 µM (inactive) | 28.8 µM (inactive) | 24.5 µM (inactive) | 36.6 µM | 12.9 µM (inactive) | 17.9 µM (inactive) | 49.9 µM (inactive) | 22 µM (inactive) | 16.3 µM (inactive) | –
14 | Nn1c(Nc2ccc(S(N)(=O)=O)cc2)nnc(/C=C/c2c(O)ccc3ccccc23)c1=O | 16.4 µM (inactive) | 17 µM (inactive) | 27.1 µM (inactive) | 0.234 µM (active) | – | 26.4 µM (inactive) | 16.3 µM (inactive) | 17.5 µM (inactive) | 22.9 µM (inactive) | 16.3 µM (inactive) | – | 39.9 µM (inactive) | 3.08 µM (inactive) | 12.8 µM | 14.5 µM (inactive) | 24.3 µM (inactive) | 42.1 µM (inactive) | 28.1 µM (inactive) | 47.2 µM (inactive) | 7.74 µM (inactive)
15 | N#Cc1nc(COCc2ccccc2)oc1N | > 100 µM (inactive) | 49.7 µM (inactive) | > 100 µM (inactive) | > 100 µM (inactive) | > 100 µM (inactive) | > 100 µM (inactive) | > 100 µM (inactive) | > 100 µM (inactive) | > 100 µM (inactive) | > 100 µM (inactive) | > 100 µM (inactive) | > 100 µM (inactive) | > 100 µM (inactive) | 51.1 µM | – | > 100 µM (inactive) | > 100 µM (inactive) | > 100 µM (inactive) | > 100 µM (inactive) | –
